# Test results as given in patent US6444683B2, “17-azolyl steroids useful as androgen synthesis inhibitors” (University of Maryland at Baltimore, priority 1997, dated 2002).
# Where “and” joins values, the source holds several entries; their conditions need not be identical. Equal values may be shown once. Entries after “also recorded” stand apart in the source; their conditions may differ. Read-outs that look alike come from different tables or passages of the source.
# Experiments:
# Rat P45017α = target: T1, Rat P45017α (Rattus norvegicus, UniProt P11715); test: Inhibition of rat testicular microsomal P45017α (lyase activity); format: biochemical
# T1 sequence (P11715 1-507): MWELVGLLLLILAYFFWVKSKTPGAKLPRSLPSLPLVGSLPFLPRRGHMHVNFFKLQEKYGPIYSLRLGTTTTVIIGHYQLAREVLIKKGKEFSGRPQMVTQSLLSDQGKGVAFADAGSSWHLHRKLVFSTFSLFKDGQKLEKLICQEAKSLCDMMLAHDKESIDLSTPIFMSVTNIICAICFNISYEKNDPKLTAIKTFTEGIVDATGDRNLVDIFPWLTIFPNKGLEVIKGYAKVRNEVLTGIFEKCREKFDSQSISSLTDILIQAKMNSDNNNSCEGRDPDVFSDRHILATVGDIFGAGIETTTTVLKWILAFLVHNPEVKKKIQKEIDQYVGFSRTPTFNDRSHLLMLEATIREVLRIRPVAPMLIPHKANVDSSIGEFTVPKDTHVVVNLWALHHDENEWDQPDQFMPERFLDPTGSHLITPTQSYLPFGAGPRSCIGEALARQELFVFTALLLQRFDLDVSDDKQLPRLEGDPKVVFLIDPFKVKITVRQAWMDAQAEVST
# Description: (§1) The microsomes were stored at −70° C. until assayed. Just before use, the thawed microsomes were diluted with 0.1 M phosphate buffer (pH 7.4) to appropriate concentrations.
# (§2) This assay measures only the lyase activity of the P45017α enzyme.
# (§3) IC50 values for inhibitors were calculated from the linear regression line in the plot of logit of lyase activity versus log of inhibitor concentration. […] Each inhibitor was examined at three concentrations.
# [1] = target: T2, human prostate 5α-reductase (Homo sapiens, UniProt P31213); test: Inhibition of human prostate 5α-reductase in BPH microsomes (conversion of [7-3H]-testosterone to DHT); format: biochemical; details: for Inhibition of 5α-reductase, in words: human prostate enzyme
# T2 construct: The enzymatic reactions were initiated by addition of human BPH microsomes; from tissue; host or cells: human benign prostatic hyperplasia (BPH) tissue, microsomal fraction
# T2 sequence (P31213 1-254): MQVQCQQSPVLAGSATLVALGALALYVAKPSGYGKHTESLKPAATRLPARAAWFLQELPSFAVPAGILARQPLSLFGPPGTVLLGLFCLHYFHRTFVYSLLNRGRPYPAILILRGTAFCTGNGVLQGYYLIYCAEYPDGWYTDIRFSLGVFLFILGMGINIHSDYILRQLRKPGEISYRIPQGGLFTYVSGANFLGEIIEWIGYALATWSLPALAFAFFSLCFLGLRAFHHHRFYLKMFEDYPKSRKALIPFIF
# Description: […] The ethanol was evaporated to dryness under a gentle stream of air. […] The enzymatic reactions were initiated by addition of human BPH microsomes (about 180 μg of microsomal protein in 500 μl of phosphate buffer) in a total volume of 1.0 ml, and the incubations were performed for 10 min under oxygen in a shaking water bath at 37° C. The incubations were terminated by placing the sample tubes on ice and the addition of ether. Also, [^14C]-DHT (3000 dpm) and cold DHT (50 μg) were added to each tube as an internal standard and visualization marker, respectively. The steroids were extracted with ether and separated by TLC (chloroform:ether, 80:20) and visualized by exposure to iodine vapor. The extracts were analyzed for ^3H and ^14C using a liquid scintillation counter. The percentage conversion of [7-^3H]-testosterone to [^3H]-dihydrotestosterone was calculated and used to determine 5α-reductase activity.
# Human P45017α = target: T3, Human P45017α (Homo sapiens, UniProt P05093); test: Inhibition of human testicular microsomal P45017α (lyase activity, release of C3H3COOH from [21-3H3]-17α-hydroxypregnenolone); format: biochemical; details: for Ki: Human P45017α Ki; for inhibition at 0.15 µM: read-out: % Inhibition of human P45017α
# T3 construct: Human testicular microsomes were prepared from human testes; from tissue; host or cells: human testes (untreated prostatic cancer patients undergoing orchidectomy), microsomal fraction
# T3 sequence (P05093 1-508): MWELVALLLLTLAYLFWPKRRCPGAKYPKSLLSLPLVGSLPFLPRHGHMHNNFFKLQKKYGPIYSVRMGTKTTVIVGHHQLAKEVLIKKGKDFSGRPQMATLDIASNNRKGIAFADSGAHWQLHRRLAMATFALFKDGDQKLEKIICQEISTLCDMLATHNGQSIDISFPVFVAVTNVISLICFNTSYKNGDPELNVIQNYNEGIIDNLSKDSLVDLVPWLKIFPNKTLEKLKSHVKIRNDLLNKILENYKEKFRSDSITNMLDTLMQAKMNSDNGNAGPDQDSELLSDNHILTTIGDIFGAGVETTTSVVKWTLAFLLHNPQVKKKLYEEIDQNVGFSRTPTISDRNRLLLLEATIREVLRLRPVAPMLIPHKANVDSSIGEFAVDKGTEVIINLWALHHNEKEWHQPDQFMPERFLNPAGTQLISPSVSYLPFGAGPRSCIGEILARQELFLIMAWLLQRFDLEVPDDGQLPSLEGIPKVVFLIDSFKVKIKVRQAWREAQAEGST
# Description: as §1, §2, §3
# [2] = test system: LNCaP human prostatic cancer cell; test: Androgen-stimulated growth of LNCaP human prostatic cancer cells in vitro
# [3] = from IC50 values, rat vs human testicular microsomes
# [4] = rat testicular microsomes, mean ± SDM of at least two experiments, read-out: Rat P45017α IC50
# [5] = human BPH microsomes, mean ± SDM of at least two experiments, read-out: 5α-Reductase IC50
# [6] = human testicular microsomes, mean ± SDM of at least two experiments, read-out: Human P45017α IC50
# [7] = inhibitor 150 nM, substrate 17α-hydroxypregnenolone 10 μM, mean of two determinations
# [8] = from Lineweaver-Burk plots and slope replots, Km of 17α-hydroxypregnenolone 560 nM
structure (smiles),measurement,setting,value
"C[C@]12CCC(=O)C=C1CC[C@@H]1[C@@H]2CC[C@]2(C)C(n3cncn3)=CC[C@@H]12 [Compound 7, 17-(1H, 1,2,4-triazol-1-yl)androsta-4,16-diene-3-one]",Increase of potency towards the rat enzyme compared with human P45017α,Rat P45017α; [3],5 fold
same,"Inhibition of rat testicular P45017α, in words",Rat P45017α; rat testicular microsomes,powerful inhibitors
same,IC50,Rat P45017α; [4],11 ± 3 nM
same,IC50,[1]; [5],152 ± 10 nM
same,"Inhibition of 5α-reductase, in words",[1],potent inhibitors
same,"Inhibition of human P45017α, in words",Human P45017α; human testicular microsomes,powerful inhibitors
same,IC50,Human P45017α; [6],55 ± 11 nM
"C[C@]12CC[C@H](O)CC1=CC[C@@H]1[C@@H]2CC[C@]2(C)C(n3cnnn3)=CC[C@@H]12 [Compound 27, 3β-hydroxy-17-(1H-tetrazol-1-yl)androsta-5,16-diene]",melting point,,200 to 204 °C (dec.)
same,"Inhibition of human P45017α, in words",Human P45017α; human testicular microsomes,non-inhibitory
same,% Inhibition of human P45017α,Human P45017α; [7],N.I.^c
CC(=O)O[C@H]1CC[C@@]2(C)C(=CC[C@@H]3[C@@H]2CC[C@]2(C)C(n4ncnn4)=CC[C@@H]32)C1,melting point,,155 to 156 °C
"C[C@]12CC[C@H]3[C@@H](CC=C4C[C@@H](O)CC[C@@]43C)[C@@H]1CC[C@@H]2n1ccnc1 [Compound 13, 3β-Hydroxy-17β-(1H-imidazol-1-yl)androst-5-ene]",melting point,,255 to 258 °C
same,IC50,Human P45017α,62 nM
CC(=O)O[C@H]1CC[C@@]2(C)C(=CC[C@@H]3[C@@H]2CC[C@]2(C)C(n4ccnn4)=CC[C@@H]32)C1,melting point,,158 to 160 °C
"C[C@]12CC[C@H](O)CC1=CC[C@@H]1[C@@H]2CC[C@]2(C)C(n3ccnc3)=CC[C@@H]12 [Compound 11, 3β-hydroxy-17-(1H-imidazol-1-yl)androsta-5,16-diene]",IC50,Rat P45017α,9 ± 2 nM
same,Increase of potency towards the rat enzyme compared with human P45017α,Rat P45017α; [3],unchanged
same,"Inhibition of rat testicular P45017α, in words",Rat P45017α; rat testicular microsomes,powerful inhibitors
same,IC50,[1],~400000 nM
same,"Inhibition of 5α-reductase, in words",[1],poor inhibitors; also recorded: neither compound inhibited 5α-reductase
same,inhibition at 2.5 µM,"[2]; Homo sapiens, LNCaP, read-out: Inhibition of DHT-induced growth of LNCaP cells",100%
same,inhibition at 1 µM,"[2]; Homo sapiens, LNCaP, read-out: Inhibition of testosterone-stimulated growth of LNCaP cells",100%
same,Toxicity to LNCaP cells,[2]; concentration range 0.5-5.0 μM,nor was toxic to the cells
same,Antiandrogenic effects,[2]; inferred from inhibition of androgen-stimulated LNCaP growth,strong antiandrogenic effects
same,IC50,Human P45017α,8 nM
same,Ki,Human P45017α,1.2 nM
same,Nature of inhibition kinetics of P45017α,"Human P45017α; Lineweaver-Burk analysis, progress curves",slow-binding inhibitor
same,"Inhibition of human P45017α, in words",Human P45017α; human testicular microsomes,potent inhibitors; also recorded: powerful inhibitors
same,inhibition at 0.15 µM,Human P45017α,97%
"C[C@]12CC[C@H](O)CC1=CC[C@@H]1[C@@H]2CC[C@]2(C)C(n3nccn3)=CC[C@@H]12 [Compound 18, 3β-hydroxy-17-(2H-1,2,3-triazol-2-yl)androsta-5,16-diene]",melting point,,176 to 177 °C
same,"Inhibition of human P45017α, in words",Human P45017α; human testicular microsomes,non-inhibitory
same,% Inhibition of human P45017α,Human P45017α; [7],N.I.^c
"C[C@]12CC[C@H]3[C@@H](CC=C4C[C@@H](O)CC[C@@]43C)[C@@H]1CC[C@@H]2n1cncn1 [Compound 8, 3β-hydroxy-17β-(1H-1,2,4-triazol-1-yl)androst-5-ene]",melting point,,246 to 248 °C
same,IC50,Human P45017α; [6],219 nM
"C[C@]12CC[C@H](O)CC1=CC[C@@H]1[C@@H]2CC[C@]2(C)C(n3cncn3)=CC[C@@H]12 [Compound 6, 3β-hydroxy-17-(1H, 1,2,4-triazol-1-yl)androsta-5,16-diene]",Increase of potency towards the rat enzyme compared with human P45017α,Rat P45017α; [3],3.5 fold
same,"Inhibition of rat testicular P45017α, in words",Rat P45017α; rat testicular microsomes,powerful inhibitors
same,IC50,Rat P45017α; [4],26 ± 13 nM
same,IC50,[1]; [5],~160000 nM
same,"Inhibition of 5α-reductase, in words",[1],poor inhibitors
same,melting point,,185 to 189 °C (dec.)
same,IC50,Human P45017α,90 nM
same,Ki,Human P45017α; [8],23 nM
same,"Inhibition of human P45017α, in words",Human P45017α; human testicular microsomes,potent inhibitors; also recorded: powerful inhibitors
same,inhibition at 0.15 µM,Human P45017α; [7],60%
"C[C@]12CCC(=O)C=C1CC[C@@H]1[C@@H]2CC[C@]2(C)C(n3ccnc3)=CC[C@@H]12 [Compound 12, 17-(1H-imidazol-1-yl)androsta-4,16-diene-3-one]",Increase of potency towards the rat enzyme compared with human P45017α,Rat P45017α; [3],unchanged
same,"Inhibition of rat testicular P45017α, in words",Rat P45017α; rat testicular microsomes,powerful inhibitors
same,IC50,Rat P45017α; [4],8 ± 0.7 nM
same,IC50,[1]; [5],142 ± 5 nM
same,"Inhibition of 5α-reductase, in words",[1],potent inhibitors
same,IC50,Human P45017α,7 ± 1 nM
same,Ki,Human P45017α; [8],1.8 nM and 1.9 nM
same,"Inhibition of human P45017α, in words",Human P45017α; human testicular microsomes,powerful inhibitors
CC(=O)O[C@H]1CC[C@@]2(C)C(=CC[C@@H]3[C@@H]2CC[C@]2(C)C(n4cccn4)=CC[C@@H]32)C1,melting point,,159 to 161 °C
"C[C@]12CC[C@H](O)CC1=CC[C@@H]1[C@@H]2CC[C@]2(C)C(n3cccn3)=CC[C@@H]12 [Compound 30, 3β-hydroxy-17-(1H-pyrazol-1-yl)androsta-5,16-diene]",melting point,,197 to 199 °C
same,"Inhibition of human P45017α, in words",Human P45017α; human testicular microsomes,moderate inhibitor
same,inhibition at 0.15 µM,Human P45017α; [7],40%
"C[C@]12CC[C@H]3[C@@H](CCC4=CC(=O)CC[C@@]43C)[C@@H]1CC[C@@H]2n1ccnc1 [Compound 14, 17β-(1H-imidazol-1-yl)androst-4-ene-3-one]",IC50,[1],765 ± 100 nM
same,IC50,Human P45017α,36 nM
"C[C@]12CCC(=O)C=C1CC[C@@H]1[C@@H]2CC[C@]2(C)C(n3ccnn3)=CC[C@@H]12 [Compound 21, 17-(1H-1,2,3-triazol-1-yl)androsta-4,16-diene-3-one]",Increase of potency towards the rat enzyme compared with human P45017α,Rat P45017α; [3],2 fold
same,"Inhibition of rat testicular P45017α, in words",Rat P45017α; rat testicular microsomes,powerful inhibitors
same,IC50,Rat P45017α; [4],9 ± 2 nM
same,IC50,[1]; [5],198 ± 33 nM
same,"Inhibition of 5α-reductase, in words",[1],potent inhibitors
same,melting point,,118 to 120 °C
same,IC50,Human P45017α,19 ± 1 nM
same,Ki,Human P45017α; [8],8 nM
same,"Inhibition of human P45017α, in words",Human P45017α; human testicular microsomes,powerful inhibitors
"C[C@]12CC[C@H](O)CC1=CC[C@@H]1[C@@H]2CC[C@]2(C)C(n3ncnn3)=CC[C@@H]12 [Compound 25, 3β-hydroxy-17-(2H-tetrazol-2-yl)androsta-5,16-diene]",melting point,,195 to 198 °C
same,"Inhibition of human P45017α, in words",Human P45017α; human testicular microsomes,non-inhibitory
same,% Inhibition of human P45017α,Human P45017α; [7],N.I.^c
CC(=O)O[C@H]1CC[C@@]2(C)C(=CC[C@@H]3[C@@H]2CC[C@]2(C)C(n4nccn4)=CC[C@@H]32)C1,melting point,,154 to 155 °C
"CC(=O)N1CCN(c2ccc(OCC3COC(Cn4ccnc4)(c4ccc(Cl)cc4Cl)O3)cc2)CC1 (centres unmarked) [Ketoconazole, reference compound]",Decrease of potency towards the rat enzyme compared with human P45017α,Rat P45017α; [3],about 3 fold
same,IC50,Rat P45017α; [4],209 ± 17 nM
same,"Inhibition of human P45017α, in words",Human P45017α; human testicular microsomes,strong inhibition
CC(=O)O[C@H]1CC[C@@]2(C)C(=CC[C@H]3[C@@H]4CC[C@@H](n5cccn5)[C@@]4(C)CC[C@@H]32)C1,melting point,,238 to 240 °C
